Measured values published in publication PMC3794971, “Functional and Genetic Characterization of Neuropeptide Y-Like Receptors in Aedes aegypti” (PLoS Neglected Tropical Diseases, 2013).
Square brackets hold non-standard residues; d marks the D form. Peptide text beside a SMILES is read from it. Hyp = O=C(O)[C@@H]1C[C@@H](O)CN1; pGlu = O=C1CC[C@@H](C(=O)O)N1

How the values were obtained:
Ae. aegypti NPYLR1 = molecular target: T1, Ae. aegypti NPYLR1 (Aedes aegypti, UniProt U5N0U1); experiment: HEK293T cell-based calcium imaging assay, Ae. aegypti NPYLR1; settings: for EC50: HEK293T cells transiently co-transfected with receptor and murine Gqα15, Fura-2 calcium imaging, eight responding cells per plate, three independent transfections, normalized to highest response
T1 sequence (U5N0U1 1-529): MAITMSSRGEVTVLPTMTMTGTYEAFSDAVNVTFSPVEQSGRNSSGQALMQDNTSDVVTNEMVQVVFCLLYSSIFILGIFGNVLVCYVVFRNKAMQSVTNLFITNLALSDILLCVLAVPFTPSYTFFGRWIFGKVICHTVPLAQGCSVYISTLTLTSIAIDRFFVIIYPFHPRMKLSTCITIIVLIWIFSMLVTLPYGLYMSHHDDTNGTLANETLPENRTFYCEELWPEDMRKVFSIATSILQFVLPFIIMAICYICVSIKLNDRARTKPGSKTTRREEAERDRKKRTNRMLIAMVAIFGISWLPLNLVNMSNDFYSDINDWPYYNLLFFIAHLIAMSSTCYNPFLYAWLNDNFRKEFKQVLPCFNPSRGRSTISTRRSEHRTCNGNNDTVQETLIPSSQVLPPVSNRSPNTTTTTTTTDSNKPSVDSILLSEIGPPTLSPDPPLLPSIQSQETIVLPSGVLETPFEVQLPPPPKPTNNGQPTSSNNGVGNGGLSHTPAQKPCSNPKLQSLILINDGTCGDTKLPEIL
Method: The variant alleles of NPYLR1 (alleles A–D) and NPYLR7 (alleles A–B) were tested in the cell-based assay as follows: NPYLR1A, NPYLR7A, and NPYLR7B were tested against the entire panel of peptides. NPYLR1B, NPYLR1C, and NPYLR1D were tested against Head Peptide-I and sNPF-3 only.

[1] = system: Ae. aegypti female mosquitoes; settings: earlier report; cited from earlier work
Method: At least two mechanisms for host-seeking inhibition have been proposed. First, abdominal distension triggered by blood ingestion is communicated through the ventral nerve cord to inhibit host attraction for approximately 24 hours [7](Figure 1B). Second, a humoral substance discovered in hemolymph at 48 hours after a blood meal is capable of suppressing host-seeking behavior when injected into non-blood-fed females [4](Figure 1B).

[2] = system: Ae. aegypti female mosquitoes; experiment: Host-seeking behavior in uniport olfactometer after peptide injection; type: in vivo, Aedes aegypti; settings: non-blood-fed females, 200 nl of 4 and 10 mM peptide injected into abdomen, tested after one hour; n = 6, ~20 females per trial
Description: The uniport olfactometer was custom built by Vadim Sherman in the Rockefeller University High Energy Physics Instrument Shop. Approximately 15-25 female mosquitoes aged 5 to 14 days were placed within loaders, which are small plastic cylinders with mesh covering both openings and a sliding door on one end obtained from the World Health Organization Vector Control Research Unit ([…], Malaysia). […] were attached to one end of a 1 m long plastic tube ([…]) that led to an “attraction trap” (14 cm long, 5 cm diameter), followed by a sealed chamber into which a human volunteer inserted a hand or forearm (see image in Figure 1A for the configuration with a hand stimulus). Humidified room air was carbon-filtered (Donaldson Ultrac-A, Bloomington, MN), supplemented to a final concentration of 5% CO2 using flow-meters (Cole Parmer, catalogue #023-92-ST, Vernon Hills, IL), and passed over the hand or forearm of the volunteer into the olfactometer at 3.8 L/min. Mosquito loaders were attached to the olfactometer and given 5 minutes to acclimatize to air-flow prior to a 5 minute host-seeking test. Mosquitoes were scored as attracted if they flew upwind through the 1 m tube and into the “attraction trap” within the allotted time. Solutions of Head Peptide-I, sNPF-3 and Head Peptide-I [[…]] were dissolved in saline (0.1M NaCl, 4 mM KCl, 2 mM CaCl2) at a concentration of 4 and 10 mM for injection. ∼20 female mosquitoes aged 5 to 14 days were anesthetized on ice for 3 min, moved individually onto a chill-plate (BioQuip catalogue #1429, Rancho Dominguez, CA, USA), and injected with 200 nl of desired solution using a Drummond Nanoject II (Drummond catalogue # 3-000-204, Broomall, PA, USA) attached to 3.5'' needles (Drummond, catalogue #3-000-203-G/X) shaped on a needle puller (Sutter Instruments Co., Model P-97). Solutions were injected into the abdomen by piercing the second abdominal […] from the ovipositor. Injected mosquitoes were placed in loaders and allowed one hour to recover from injection before being tested for host-seeking behavior in the uniport olfactometer.

Ae. aegypti NPYLR7 = experiment: HEK293T cell-based calcium imaging assay, Ae. aegypti NPYLR7; design: species or system Aedes aegypti; settings: HEK293T + murine Gqα15, Fura-2 calcium imaging; NPYLR7B allele responded, NPYLR7A did not
Method: (§2) HEK293T cells were cultured using standard protocols in a Thermo Scientific FORMA Series II – Water Jacketed CO2 incubator (Waltham, MA, USA). Lipofectamine 2000 (Invitrogen) was used for transient transfection of 1 µg pME18S>Candidate receptor and 1 µg pME18S>murine Gqα15 [14]. Transfected cells were loaded with the calcium sensitive dye Fura-2 (Invitrogen) according to product instructions. Cells were imaged on a Nikon Eclipse TE-2000-U microscope (Melville, NY, USA) using fluorescent excitation from a Lambda DG-4 (Sutter Instruments Co., Novato, CA, USA). Bath application of ∼300 µl solutions containing peptides diluted in Ringer's solution (0.14 M NaCl, 5.6 mM KCl, 5 mM HEPES, 2 mM pyruvic acid, 2 mM CaCl2, 2 mM MgCl2, 0.15% Glucose, 1.25 mM KH2PO4, pH 7.4) were delivered using a diaphragm pump (Gilson Minipuls3, Middleton, WI, USA) with real-time recording and analysis in Metafluor software (Version 7.1.2.0; Molecular Devices, Sunnyvale, CA, USA). Data from a complete peptide dilution series were collected from eight responding cells within each plate of three independent transfections. Data were normalized by setting the highest fluorescent response within each experiment to 100%.
NPYLR1B, NPYLR1C, and NPYLR1D were tested against Head Peptide-I and sNPF-3 only. […]

D.mel-sNPFR [3] = molecular target: T2, D.mel-sNPFR (Drosophila melanogaster, UniProt Q9VW75); experiment: HEK293T cell-based calcium imaging assay, D.mel-sNPFR; settings: HEK293T + murine Gqα15, Fura-2 calcium imaging
T2 sequence (Q9VW75 1-600): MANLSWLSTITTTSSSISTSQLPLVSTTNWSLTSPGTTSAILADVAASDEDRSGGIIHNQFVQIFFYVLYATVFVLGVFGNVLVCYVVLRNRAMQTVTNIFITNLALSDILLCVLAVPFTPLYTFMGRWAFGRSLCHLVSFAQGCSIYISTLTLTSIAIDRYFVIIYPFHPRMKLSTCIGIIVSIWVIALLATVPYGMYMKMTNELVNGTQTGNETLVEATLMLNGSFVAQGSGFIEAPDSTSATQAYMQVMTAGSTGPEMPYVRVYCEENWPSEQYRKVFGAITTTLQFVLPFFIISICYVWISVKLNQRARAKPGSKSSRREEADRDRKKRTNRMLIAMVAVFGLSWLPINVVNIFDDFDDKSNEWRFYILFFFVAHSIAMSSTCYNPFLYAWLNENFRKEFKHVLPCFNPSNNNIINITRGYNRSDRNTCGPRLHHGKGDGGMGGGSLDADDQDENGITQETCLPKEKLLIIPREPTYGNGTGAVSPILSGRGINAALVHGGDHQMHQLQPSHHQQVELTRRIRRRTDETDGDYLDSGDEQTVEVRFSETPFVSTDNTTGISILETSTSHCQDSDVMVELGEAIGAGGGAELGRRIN
Method: as §2
We also used human Neuropeptide Y (NPY) and Peptide YY (PYY) [23](Figure 2B). […]

D.mel-sNPFR [4] = molecular target: T2, D.mel-sNPFR; settings: earlier reports, not this paper's assay; cited from earlier work
Description: (§1) Ae. aegypti NPYLR1 is homologous to the sNPF receptors (sNPFR) of D. melanogaster, [24] and An. gambiae. […] We have no explanation for these discrepancies, but note that since D ...

A.gam-sNPFR = molecular target: T3, A.gam-sNPFR (Anopheles gambiae, UniProt A0SIF2); settings: earlier reports, not this paper's assay; cited from earlier work
T3 sequence (A0SIF2 1-575): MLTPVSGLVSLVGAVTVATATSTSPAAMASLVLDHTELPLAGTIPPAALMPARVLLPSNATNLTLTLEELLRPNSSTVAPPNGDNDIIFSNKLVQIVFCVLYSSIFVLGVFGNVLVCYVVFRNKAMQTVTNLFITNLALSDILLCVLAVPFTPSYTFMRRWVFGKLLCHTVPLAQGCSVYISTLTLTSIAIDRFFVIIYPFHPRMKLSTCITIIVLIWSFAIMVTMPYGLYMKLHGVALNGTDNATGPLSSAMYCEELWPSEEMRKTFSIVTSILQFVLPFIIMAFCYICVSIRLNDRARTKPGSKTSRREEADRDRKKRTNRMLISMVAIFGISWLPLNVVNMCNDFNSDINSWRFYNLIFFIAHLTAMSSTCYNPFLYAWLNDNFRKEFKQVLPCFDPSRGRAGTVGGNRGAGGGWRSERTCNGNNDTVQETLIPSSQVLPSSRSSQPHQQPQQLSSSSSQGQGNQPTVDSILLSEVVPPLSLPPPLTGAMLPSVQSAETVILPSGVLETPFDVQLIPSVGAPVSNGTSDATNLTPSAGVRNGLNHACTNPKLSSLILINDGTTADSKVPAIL
Description: as §1

In the case of pERPhPSLKTRC [Head Peptide-I [Cys10]], the “Calcium response of NPYLR1” value (Ae. aegypti NPYLR1; concentrations up to 50 µM, HEK293T + murine Gqα15, Fura-2) is listed as “no response”, the “Host-seeking behavior activity of injected peptide” value (“Host-seeking behavior activity” for short) [1] is listed as “inactive” and the “Host-seeking behavior (percent attraction to human host stimuli) after injection” value [2] is listed as “had no effect”.
Compound `CC(C)C[C@H](NC(=O)[C@H](CCCNC(=N)N)NC(=O)[C@H](CC(C)C)NC(=O)[C@H](CCC(N)=O)NC(=O)[C@@H]1CCCN1C(=O)[C@H](C)N)C(=O)N[C@@H](CCCNC(=N)N)C(=O)N[C@@H](Cc1ccccc1)C(N)=O` [sNPF-2+4] (H-APQLRLRF-NH2) has an EC50 (Ae. aegypti NPYLR1) of 35 nM.
For `CC(C)C[C@H](NC(=O)[C@H](CCCNC(=N)N)NC(=O)[C@H](CCC(N)=O)NC(=O)[C@H](CO)NC(=O)[C@@H]1CCCN1C(=O)[C@H](C)N)C(=O)N[C@@H](CCCNC(=N)N)C(=O)N[C@@H](Cc1c[nH]c2ccccc12)C(N)=O` [sNPF-3] (H-APSQRLRW-NH2; N-terminus assumed), the EC50 (Ae. aegypti NPYLR7) was 6000 nM, the EC50 (Ae. aegypti NPYLR1) was 75 nM and the “Sensitivity of NPYLR1 to sNPF-3 relative to Head Peptide-I” value (Ae. aegypti NPYLR1; cell-based assay) was “ten times more sensitive”. The “Host-seeking behavior (percent attraction to human host stimuli) after injection” value [2] was “inhibited host-seeking behavior”.
In the case of `CC(C)C[C@H](NC(=O)[C@H](CO)NC(=O)[C@@H]1C[C@@H](O)CN1C(=O)[C@@H]1CCCN1C(=O)[C@H](CCCNC(=N)N)NC(=O)[C@@H]1CCC(=O)N1)C(=O)N[C@@H](CCCCN)C(=O)N[C@H](C(=O)N[C@@H](CCCNC(=N)N)C(=O)N[C@@H](Cc1ccccc1)C(N)=O)[C@@H](C)O` [Head Peptide-I] ([pGlu]RP[Hyp]SLKTRF-NH2), the EC50 (Ae. aegypti NPYLR1) is given as 823 nM, the “Host-seeking behavior activity” value [1] is given as “sufficient to inhibit host-seeking behavior” and the “Host-seeking behavior (percent attraction to human host stimuli) after injection” value [2] is given as “inhibition of host-seeking behavior”. It also gave an EC50 (D.mel-sNPFR [3]) of 1000 nM.
In the case of `CC(C)C[C@H](NC(=O)[C@H](CO)NC(=O)[C@@H]1CCCN1C(=O)[C@@H]1CCCN1C(=O)[C@H](CCCNC(=N)N)NC(=O)[C@@H]1CCC(=O)N1)C(=O)N[C@@H](CCCCN)C(=O)N[C@H](C(=O)N[C@@H](CCCNC(=N)N)C(=O)N[C@@H](Cc1ccccc1)C(N)=O)[C@@H](C)O` [Head Peptide-III] ([pGlu]RPPSLKTRF-NH2), the EC50 (Ae. aegypti NPYLR1) is given as 954 nM, the “Host-seeking behavior activity” value [1] is given as “behaviorally inactive” and the “Sensitivity of D. melanogaster sNPFR to Head Peptide-III” value (D.mel-sNPFR [4]) is given as “lack sensitivity”. The “Sensitivity of An. gambiae sNPFR to Head Peptide-III” value (A.gam-sNPFR) was “lack sensitivity”.
Work on `CC(C)C[C@H](NC(=O)[C@H](CCCNC(=N)N)NC(=O)[C@H](CC(C)C)NC(=O)[C@H](CO)NC(=O)[C@@H]1CCCN1C(=O)[C@H](CO)NC(=O)[C@H](CCCNC(=N)N)NC(=O)[C@@H](NC(=O)[C@H](C)NC(=O)[C@@H](N)CCCCN)C(C)C)C(=O)N[C@@H](CCCNC(=N)N)C(=O)N[C@@H](Cc1ccccc1)C(N)=O` [sNPF-1] (H-KAVRSPSLRLRF-NH2; N-terminus assumed) yielded an EC50 (Ae. aegypti NPYLR7) of 634 nM and an EC50 (Ae. aegypti NPYLR1) of 55 nM.
`CC(C)C[C@H](NC(=O)[C@H](CCCNC(=N)N)NC(=O)[C@H](CC(C)C)NC(=O)[C@H](CO)NC(=O)[C@@H]1CCCN1C(=O)[C@@H](N)CO)C(=O)N[C@@H](CCCNC(=N)N)C(=O)N[C@@H](Cc1ccccc1)C(N)=O` [sNPF-1(4-11)] (H-SPSLRLRF-NH2) showed an EC50 (Ae. aegypti NPYLR1) of 44 nM.
